Read-outs that look alike come from different tables or passages of the source.

What all share (assay): Test A preemergence
Type in all cases: in vivo

In one experiment the test system is Kochia (Kochia scoparia). The settings on record: Bassia scoparia, pre-emergence, 240 h; for pest or weed control at 125 g/ha: 125 g ai/ha; for pest or weed control at 500 g/ha: 500 g ai/ha. The method, boiled down:
(§1)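 Each rating is a visual injury score from 0 to 100 given about 10 d after treatment, judged against untreated controls kept alongside in the greenhouse. In loam soil–sand blend, seeds got a preemergence directed soil spray, while postemergence plants were 2 to 10 cm tall at spraying.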

Experiment [1] relates to barnyardgrass (Echinochloa crus-galli). As to conditions: Echinochloa crus-galli, pre-emergence, 240 h; for pest or weed control at 125 g/ha: 125 g ai/ha; for pest or weed control at 500 g/ha: 500 g ai/ha. The essentials:
as §1

The test system of experiment [2] is giant foxtail (Setaria faberii). The settings on record: Setaria faberi, pre-emergence, 240 h; for pest or weed control at 125 g/ha: 125 g ai/ha; for pest or weed control at 500 g/ha: 500 g ai/ha. The essentials: as §1
The test system of experiment [3] is pigweed (Amaranthus retroflexus). As to conditions: Amaranthus retroflexus, pre-emergence, 240 h; for pest or weed control at 125 g/ha: 125 g ai/ha; for pest or weed control at 500 g/ha: 500 g ai/ha.
Experiment [4] concerns ragweed (common ragweed, Ambrosia elatior). As to conditions: Ambrosia artemisiifolia, pre-emergence, 240 h; for pest or weed control at 125 g/ha: 125 g ai/ha; for pest or weed control at 500 g/ha: 500 g ai/ha. The essentials: as §1
Where [5] appears, read: Preemergence, visual injury rating after approximately 10 d, read-out: Kochia plant response rating (0 to 100 scale, 0 is no effect, 100 is complete control).
Where [6] appears, read: preemergence, visual injury rating about 10 d after treatment, 0 to 100 scale (0 no effect, 100 complete control), read-out: Kochia plant response rating.
The mark [7] stands for this setting: Preemergence, visual injury rating after approximately 10 d, read-out: Barnyardgrass plant response rating (0 to 100 scale, 0 is no effect, 100 is complete control).
The mark [8] stands for this setting: preemergence, visual injury rating about 10 d after treatment, 0 to 100 scale (0 no effect, 100 complete control), read-out: Barnyardgrass plant response rating.
[9] abbreviates: Preemergence, visual injury rating after approximately 10 d, read-out: Foxtail, Giant plant response rating (0 to 100 scale, 0 is no effect, 100 is complete control).
[10] abbreviates: preemergence, visual injury rating about 10 d after treatment, 0 to 100 scale (0 no effect, 100 complete control), read-out: Foxtail, Giant plant response rating.
Setting [11] is: Preemergence, visual injury rating after approximately 10 d, read-out: Pigweed plant response rating (0 to 100 scale, 0 is no effect, 100 is complete control).
Where [12] appears, read: preemergence, visual injury rating about 10 d after treatment, 0 to 100 scale (0 no effect, 100 complete control), read-out: Pigweed plant response rating.
The mark [13] stands for this setting: Preemergence, visual injury rating after approximately 10 d, read-out: Ragweed plant response rating (0 to 100 scale, 0 is no effect, 100 is complete control).
The mark [14] stands for this setting: preemergence, visual injury rating about 10 d after treatment, 0 to 100 scale (0 no effect, 100 complete control), read-out: Ragweed plant response rating.
[15] abbreviates: preemergence, 0 to 100 scale where 0 is no effect and 100 is complete control, approx. 10 d, read-out: Kochia plant response rating.
The mark [16] stands for this setting: preemergence, 0 to 100 scale where 0 is no effect and 100 is complete control, approx. 10 d, read-out: Barnyardgrass plant response rating.
Where [17] appears, read: preemergence, 0 to 100 scale where 0 is no effect and 100 is complete control, approx. 10 d, read-out: Foxtail, Giant plant response rating.
Where [18] appears, read: preemergence, 0 to 100 scale where 0 is no effect and 100 is complete control, approx. 10 d, read-out: Pigweed plant response rating.
The mark [19] stands for this setting: preemergence, 0 to 100 scale where 0 is no effect and 100 is complete control, approx. 10 d, read-out: Ragweed plant response rating.
[20] abbreviates: preemergence, 0 to 100 scale where 0 is no effect and 100 is complete control, read-out: Kochia plant response rating.
Where [21] appears, read: preemergence, 0 to 100 scale where 0 is no effect and 100 is complete control, read-out: Foxtail, Giant plant response rating.
[22] abbreviates: preemergence, 0 to 100 scale where 0 is no effect and 100 is complete control, read-out: Pigweed plant response rating.
Where [23] appears, read: preemergence, 0 to 100 scale where 0 is no effect and 100 is complete control, read-out: Ragweed plant response rating.
Setting [24] is: preemergence, 0 to 100 scale where 0 is no effect and 100 is complete control, read-out: Barnyardgrass plant response rating.

With `O=C1NC[C@H](c2ccc3c(c2)CCC3)[C@H]1C(=O)Nc1ccccc1F` [Compound 1045], the pest or weed control at 125 g/ha in the experiment with Kochia (Kochia scoparia) (setting [5]) amounted to 0%; in experiment [1] (setting [7]), 90%; in experiment [2] (setting [9]) it was 80%; in experiment [3] (setting [11]) it was 0%; in experiment [4] (setting [13]), 0%. The pest or weed control at 500 g/ha in the experiment on Kochia (Kochia scoparia) (setting [6]) turned out to be 20%; in experiment [1] (setting [8]) it was 90%; in experiment [2] (setting [10]) it was 90%; in experiment [3] (setting [12]) it was 0%; in experiment [4] (setting [14]), 30%.
As for `O=C1NC[C@H](c2ccc3c(c2)CCC3)[C@H]1C(=O)Nc1cccc(F)c1F` [Compound 1046], the pest or weed control at 125 g/ha in the experiment on Kochia (Kochia scoparia) (setting [5]) was 60%; in experiment [1] (setting [7]), 90%; in experiment [2] (setting [9]), 80%; in experiment [3] (setting [11]), 0%; in experiment [4] (setting [13]), 40%. Also, the pest or weed control at 500 g/ha with Kochia (Kochia scoparia) (setting [6]) came out at 70%; in experiment [1] (setting [8]), 90%; in experiment [2] (setting [10]) it was 90%; in experiment [3] (setting [12]) it was 0%; in experiment [4] (setting [14]) it was 70%.
On to `CN1C[C@H](c2cc(F)cc(F)c2)[C@@H](C(=O)Nc2ccncc2F)C1=O` [Compound 1095], for which the pest or weed control at 125 g/ha (in the experiment with Kochia (Kochia scoparia) (setting [15]); in experiment [1] (setting [16]); in experiment [2] (setting [17]); in experiment [3] (setting [18]); in experiment [4] (setting [19])) was 0% in each case. For the same molecule, the pest or weed control at 500 g/ha in the experiment with Kochia (Kochia scoparia) (setting [6]) came out at 0%; in experiment [1] (setting [8]) it was 60%; in experiment [2] (setting [10]), 90%; in experiment [3] (setting [12]), 30%; in experiment [4] (setting [14]) it was 0%.
As to `CN1C[C@H](c2cc(F)cc(F)c2)[C@@H](C(=O)Nc2cnccc2Cl)C1=O` [Compound 1096], the pest or weed control at 125 g/ha (in the experiment with Kochia (Kochia scoparia) (setting [15]); in experiment [1] (setting [16]); in experiment [2] (setting [17]); in experiment [3] (setting [18]); in experiment [4] (setting [19])) was 0% in each case. Further, the pest or weed control at 500 g/ha (in the experiment on Kochia (Kochia scoparia) (setting [6]); in experiment [1] (setting [8]); in experiment [2] (setting [10]); in experiment [3] (setting [12]); in experiment [4] (setting [14])) was 0% in each case.
For the molecule `Cc1cc([C@H]2CN(C)C(=O)[C@@H]2C(=O)Nc2ccc(F)cc2F)ccc1Br` [Compound 1100], the pest or weed control at 125 g/ha stood at 50% in the experiment on Kochia (Kochia scoparia) (setting [15]); 90% in experiment [1] (setting [16]); 90% in experiment [2] (setting [17]); 0% in experiment [3] (setting [18]); 0% in experiment [4] (setting [19]). The pest or weed control at 500 g/ha is 60% in the experiment with Kochia (Kochia scoparia) (setting [6]); 90% in experiment [1] (setting [8]); 90% in experiment [2] (setting [10]); 0% in experiment [3] (setting [12]); 0% in experiment [4] (setting [14]).
For the molecule `Cc1cc([C@H]2CN(C)C(=O)[C@@H]2C(=O)Nc2ccc(F)c(F)c2F)ccc1Br` [Compound 1101], the pest or weed control at 125 g/ha with Kochia (Kochia scoparia) (setting [15]) is 60%; in experiment [1] (setting [16]) it was 90%; in experiment [2] (setting [17]), 90%; in experiment [3] (setting [18]), 0%; in experiment [4] (setting [19]) it was 0%. The pest or weed control at 500 g/ha with Kochia (Kochia scoparia) (setting [6]) was determined as 70%; in experiment [1] (setting [8]), 90%; in experiment [2] (setting [10]), 90%; in experiment [3] (setting [12]), 20%; in experiment [4] (setting [14]), 40%.
Turning to `Cc1cc([C@H]2CN(C)C(=O)[C@@H]2C(=O)Nc2ccccc2S(C)(=O)=O)ccc1Br` [Compound 1102], the pest or weed control at 125 g/ha was determined as 20% with Kochia (Kochia scoparia) (setting [15]); 90% in experiment [1] (setting [16]); 90% in experiment [2] (setting [17]); 20% in experiment [3] (setting [18]); 0% in experiment [4] (setting [19]). Also, the pest or weed control at 500 g/ha is 70% in the experiment on Kochia (Kochia scoparia) (setting [20]); 90% in experiment [1] (setting [8]); 90% in experiment [2] (setting [21]); 50% in experiment [3] (setting [22]); 50% in experiment [4] (setting [23]).
Consider `CN1C[C@H](c2cscn2)[C@@H](C(=O)Nc2ccccc2F)C1=O` [Compound 1112], for which the pest or weed control at 125 g/ha (in the experiment on Kochia (Kochia scoparia) (setting [15]); in experiment [1] (setting [16]); in experiment [2] (setting [17]); in experiment [3] (setting [18]); in experiment [4] (setting [19])) was 0% in each case. Further, the pest or weed control at 500 g/ha (in the experiment on Kochia (Kochia scoparia) (setting [20]); in experiment [1] (setting [8]); in experiment [2] (setting [21]); in experiment [3] (setting [22]); in experiment [4] (setting [23])) was 0% throughout.
Take `CN1C[C@H](c2cc(C(F)F)cs2)[C@@H](C(=O)Nc2ccccc2F)C1=O` [Compound 1120]: the pest or weed control at 125 g/ha stood at 40% in the experiment on Kochia (Kochia scoparia) (setting [15]); 90% in experiment [1] (setting [16]); 90% in experiment [2] (setting [17]); 0% in experiment [3] (setting [18]); 40% in experiment [4] (setting [19]). Moreover, the pest or weed control at 500 g/ha was found to be 70% with Kochia (Kochia scoparia) (setting [20]); 100% in experiment [1] (setting [8]); 100% in experiment [2] (setting [21]); 50% in experiment [3] (setting [22]); 50% in experiment [4] (setting [23]).
Take `CSc1ccccc1NC(=O)[C@H]1C(=O)NC[C@@H]1c1cc(F)c(F)c(F)c1` [Compound 1124]: the pest or weed control at 125 g/ha is 70% in the experiment on Kochia (Kochia scoparia) (setting [15]); 60% in experiment [1] (setting [16]); 90% in experiment [2] (setting [17]); 50% in experiment [3] (setting [18]); 0% in experiment [4] (setting [19]). The pest or weed control at 500 g/ha in the experiment on Kochia (Kochia scoparia) (setting [20]) is 90%; in experiment [1] (setting [24]), 90%; in experiment [2] (setting [21]) it was 90%; in experiment [3] (setting [22]) it was 70%; in experiment [4] (setting [23]), 60%.
As for `Cc1c(F)cccc1NC(=O)[C@H]1C(=O)NC[C@@H]1c1cc(F)c(F)c(F)c1` [Compound 1125], the pest or weed control at 125 g/ha was determined as 50% with Kochia (Kochia scoparia) (setting [15]); 90% in experiment [1] (setting [16]); 90% in experiment [2] (setting [17]); 0% in experiment [3] (setting [18]); 0% in experiment [4] (setting [19]). The pest or weed control at 500 g/ha in the experiment with Kochia (Kochia scoparia) (setting [20]) was determined as 80%; in experiment [1] (setting [24]), 90%; in experiment [2] (setting [21]), 100%; in experiment [3] (setting [22]), 40%.

Values taken from patent US12077503B2, “Substituted cyclic amides and their use as herbicides” (FMC CORPORATION, priority 2015, dated 2024).
